Data as given in the NIST ThermoML archive (doi:10.1021/je101086r).
± gives the expanded uncertainty stated by the source.

Assay: xn = mol fraction of the nth substance listed
Conditions: Pycnometric method

CC1COC(=O)O1 (configuration not stated) [4-methyl-1,3-dioxolan-2-one] + O=C=O
Conditions	mass density [kg/m3]
313 K, 2000 kPa, Gas, x2 = 0.9953	47.6 ± 16
313 K, 2000 kPa, Liquid, x2 = 0.2593	1170 ± 44
313 K, 3000 kPa, Gas, x2 = 0.9895	73 ± 16
313 K, 3000 kPa, Liquid, x2 = 0.3384	1170 ± 44
313 K, 4000 kPa, Gas, x2 = 0.9864	97.2 ± 16
313 K, 4000 kPa, Liquid, x2 = 0.4022	1160 ± 44
313 K, 5000 kPa, Gas, x2 = 0.9894	136.8 ± 16
313 K, 5000 kPa, Liquid, x2 = 0.4548	1164.8 ± 44
313 K, 6000 kPa, Gas, x2 = 0.9963	170.5 ± 16
313 K, 6000 kPa, Liquid, x2 = 0.4919	1156 ± 44
313 K, 7000 kPa, Gas, x2 = 0.99	224.7 ± 16
313 K, 7000 kPa, Liquid, x2 = 0.542	1141.4 ± 43
313 K, 8000 kPa, Gas, x2 = 0.99	244 ± 16
313 K, 8000 kPa, Liquid, x2 = 0.5706	1129.7 ± 43
313 K, 9000 kPa, Gas, x2 = 0.9907	276.7 ± 16
313 K, 9000 kPa, Liquid, x2 = 0.6169	1109.2 ± 42
313 K, 10000 kPa, Gas, x2 = 0.9841	339.9 ± 18
313 K, 10000 kPa, Liquid, x2 = 0.6579	1089.3 ± 41
313 K, 11000 kPa, Gas, x2 = 0.9866	366.2 ± 16
313 K, 11000 kPa, Liquid, x2 = 0.6915	1073 ± 41
313 K, 12000 kPa, Gas, x2 = 0.9694	390.8 ± 16
313 K, 12000 kPa, Liquid, x2 = 0.7279	1046.6 ± 49
333 K, 3000 kPa, Gas, x2 = 0.9942	52 ± 16
333 K, 3000 kPa, Liquid, x2 = 0.2425	1090.7 ± 42
333 K, 4000 kPa, Gas, x2 = 0.9968	77.8 ± 18
333 K, 4000 kPa, Liquid, x2 = 0.2787	1096.7 ± 42
333 K, 5000 kPa, Gas, x2 = 0.9922	100.2 ± 18
333 K, 5000 kPa, Liquid, x2 = 0.3272	1106.7 ± 42
333 K, 6000 kPa, Gas, x2 = 0.9862	116.8 ± 16
333 K, 6000 kPa, Liquid, x2 = 0.3723	1105.7 ± 42
333 K, 7000 kPa, Gas, x2 = 0.9885	147.9 ± 17
333 K, 7000 kPa, Liquid, x2 = 0.4079	1109.2 ± 42
333 K, 8000 kPa, Gas, x2 = 0.9898	174.5 ± 19
333 K, 8000 kPa, Liquid, x2 = 0.4512	1110.2 ± 42
333 K, 9000 kPa, Gas, x2 = 0.984	199.6 ± 16
333 K, 9000 kPa, Liquid, x2 = 0.4846	1102.2 ± 42
333 K, 10000 kPa, Gas, x2 = 0.9855	230.2 ± 19
333 K, 10000 kPa, Liquid, x2 = 0.5244	1091.2 ± 42
333 K, 11000 kPa, Gas, x2 = 0.9812	271.3 ± 17
333 K, 11000 kPa, Liquid, x2 = 0.5725	1077.1 ± 41
333 K, 12000 kPa, Gas, x2 = 0.9888	326.5 ± 17
333 K, 12000 kPa, Liquid, x2 = 0.6065	1061.1 ± 40
333 K, 13000 kPa, Gas, x2 = 0.9883	411.2 ± 18
333 K, 13000 kPa, Liquid, x2 = 0.6246	1052.5 ± 40
353 K, 1000 kPa, Gas, x2 = 0.952	18.6
353 K, 1000 kPa, Liquid, x2 = 0.081	1011 ± 38
353 K, 2000 kPa, Gas, x2 = 0.9663	32.2
353 K, 2000 kPa, Liquid, x2 = 0.115	1024.5 ± 39
353 K, 3000 kPa, Gas, x2 = 0.9679	50.9 ± 16
353 K, 3000 kPa, Liquid, x2 = 0.1518	1030 ± 39
353 K, 4000 kPa, Gas, x2 = 0.9679	68.5 ± 16
353 K, 4000 kPa, Liquid, x2 = 0.196	1040.8 ± 40
353 K, 5000 kPa, Gas, x2 = 0.9591	84.4 ± 16
353 K, 5000 kPa, Liquid, x2 = 0.2317	1044.3 ± 40
353 K, 6000 kPa, Gas, x2 = 0.9866	100 ± 16
353 K, 6000 kPa, Liquid, x2 = 0.2852	1054.8 ± 40
353 K, 7000 kPa, Gas, x2 = 0.9836	115 ± 16
353 K, 7000 kPa, Liquid, x2 = 0.3205	1062.4 ± 40
353 K, 8000 kPa, Gas, x2 = 0.9922	164.5 ± 16
353 K, 8000 kPa, Liquid, x2 = 0.351	1050 ± 40
353 K, 9000 kPa, Gas, x2 = 0.9891	206 ± 16
353 K, 9000 kPa, Liquid, x2 = 0.3881	1048.4 ± 40
353 K, 10000 kPa, Gas, x2 = 0.9709	224.7 ± 17
353 K, 10000 kPa, Liquid, x2 = 0.4112	1035.5 ± 39
353 K, 11000 kPa, Gas, x2 = 0.9779	250 ± 16
353 K, 11000 kPa, Liquid, x2 = 0.4485	997.5 ± 38
353 K, 12000 kPa, Gas, x2 = 0.9719	300 ± 16
353 K, 12000 kPa, Liquid, x2 = 0.492	970.4 ± 37
353 K, 13000 kPa, Gas, x2 = 0.9842	320 ± 16
353 K, 13000 kPa, Liquid, x2 = 0.5225	951.1 ± 36
373 K, 3000 kPa, Gas, x2 = 0.9747	40 ± 16
373 K, 3000 kPa, Liquid, x2 = 0.1384	1000 ± 38
373 K, 4000 kPa, Gas, x2 = 0.9779	60.5 ± 16
373 K, 4000 kPa, Liquid, x2 = 0.1638	1004.9 ± 38
373 K, 5000 kPa, Gas, x2 = 0.98	82.7 ± 16
373 K, 5000 kPa, Liquid, x2 = 0.2031	1005.4 ± 38
373 K, 6000 kPa, Gas, x2 = 0.9802	95.9 ± 16
373 K, 6000 kPa, Liquid, x2 = 0.2367	1011.5 ± 39
373 K, 7000 kPa, Gas, x2 = 0.9784	125.9 ± 16
373 K, 7000 kPa, Liquid, x2 = 0.2692	1000 ± 38
373 K, 8000 kPa, Gas, x2 = 0.9795	149.8 ± 16
373 K, 8000 kPa, Liquid, x2 = 0.2948	988.9 ± 38
373 K, 9000 kPa, Gas, x2 = 0.9782	158 ± 18
373 K, 9000 kPa, Liquid, x2 = 0.3268	980.9 ± 37
373 K, 10000 kPa, Gas, x2 = 0.9847	181 ± 16
373 K, 10000 kPa, Liquid, x2 = 0.3403	960.8 ± 36
373 K, 11000 kPa, Gas, x2 = 0.9806	226.8 ± 21
373 K, 11000 kPa, Liquid, x2 = 0.3805	940.7 ± 36
373 K, 12000 kPa, Gas, x2 = 0.9848	241.7 ± 18
373 K, 12000 kPa, Liquid, x2 = 0.39	935.1 ± 36
373 K, 13000 kPa, Gas, x2 = 0.9844	264.9 ± 16
373 K, 13000 kPa, Liquid, x2 = 0.4136	931.2 ± 35

CCCC(=O)OCC [ethyl butanoate] + O=C=O
Conditions	mass density [kg/m3]
313 K, 2000 kPa, Gas, x2 = 0.9978	39.4 ± 16
313 K, 2000 kPa, Liquid, x2 = 0.3795	919.1 ± 35
313 K, 3000 kPa, Gas, x2 = 0.9926	61.3 ± 17
313 K, 3000 kPa, Liquid, x2 = 0.4919	901 ± 34
313 K, 4000 kPa, Gas, x2 = 0.9951	96.8 ± 16
313 K, 4000 kPa, Liquid, x2 = 0.6053	867.6 ± 33
313 K, 5000 kPa, Gas, x2 = 0.9938	141.2 ± 16
313 K, 5000 kPa, Liquid, x2 = 0.7204	841.3 ± 32
313 K, 6000 kPa, Gas, x2 = 0.9941	222.9 ± 17
313 K, 6000 kPa, Liquid, x2 = 0.8124	813.8 ± 31
313 K, 7000 kPa, Gas, x2 = 0.9888	300 ± 17
313 K, 7000 kPa, Liquid, x2 = 0.8876	789.8 ± 30
313 K, 8000 kPa, Gas, x2 = 0.9616	450 ± 18
313 K, 8000 kPa, Liquid, x2 = 0.9495	744.8 ± 28
333 K, 2000 kPa, Gas, x2 = 0.967	38.2 ± 16
333 K, 2000 kPa, Liquid, x2 = 0.3088	801.5 ± 30
333 K, 3000 kPa, Gas, x2 = 0.9751	57 ± 16
333 K, 3000 kPa, Liquid, x2 = 0.3978	806.9 ± 31
333 K, 4000 kPa, Gas, x2 = 0.9726	82.4 ± 16
333 K, 4000 kPa, Liquid, x2 = 0.491	804.4 ± 31
333 K, 5000 kPa, Gas, x2 = 0.9713	120.5 ± 16
333 K, 5000 kPa, Liquid, x2 = 0.5707	786.8 ± 30
333 K, 6000 kPa, Gas, x2 = 0.9709	164.2 ± 16
333 K, 6000 kPa, Liquid, x2 = 0.6514	781.3 ± 30
333 K, 7000 kPa, Gas, x2 = 0.9706	258.1 ± 16
333 K, 7000 kPa, Liquid, x2 = 0.7285	752.2 ± 29
333 K, 8000 kPa, Gas, x2 = 0.9716	298.4 ± 17
333 K, 8000 kPa, Liquid, x2 = 0.8105	726.6 ± 28
333 K, 9000 kPa, Gas, x2 = 0.9541	375.1 ± 16
333 K, 9000 kPa, Liquid, x2 = 0.8711	692 ± 26
333 K, 10000 kPa, Gas, x2 = 0.92	426.5 ± 16
333 K, 10000 kPa, Liquid, x2 = 0.9039	670 ± 26
353 K, 2000 kPa, Gas, x2 = 0.9121	34.5 ± 16
353 K, 2000 kPa, Liquid, x2 = 0.2195	762.9 ± 29
353 K, 3000 kPa, Gas, x2 = 0.9126	46.2 ± 16
353 K, 3000 kPa, Liquid, x2 = 0.2919	764.7 ± 29
353 K, 4000 kPa, Gas, x2 = 0.9151	68.5 ± 16
353 K, 4000 kPa, Liquid, x2 = 0.356	765.8 ± 29
353 K, 5000 kPa, Gas, x2 = 0.9166	106.5 ± 17
353 K, 5000 kPa, Liquid, x2 = 0.4259	758.8 ± 29
353 K, 6000 kPa, Gas, x2 = 0.9166	150.4 ± 17
353 K, 6000 kPa, Liquid, x2 = 0.4863	753 ± 29
353 K, 7000 kPa, Gas, x2 = 0.9189	215.9 ± 16
353 K, 7000 kPa, Liquid, x2 = 0.5364	734.8 ± 28
353 K, 8000 kPa, Gas, x2 = 0.9142	258 ± 16
353 K, 8000 kPa, Liquid, x2 = 0.5983	719.6 ± 28
353 K, 9000 kPa, Gas, x2 = 0.9127	308.3 ± 16
353 K, 9000 kPa, Liquid, x2 = 0.6685	685.1 ± 29
353 K, 10000 kPa, Gas, x2 = 0.91	331.7 ± 16
353 K, 10000 kPa, Liquid, x2 = 0.7399	655.8 ± 26
353 K, 11000 kPa, Gas, x2 = 0.89	375 ± 16
353 K, 11000 kPa, Liquid, x2 = 0.8222	655.2 ± 25
373 K, 2000 kPa, Gas, x2 = 0.867	30.6
373 K, 2000 kPa, Liquid, x2 = 0.18	627.3 ± 24
373 K, 3000 kPa, Gas, x2 = 0.8751	45.1 ± 16
373 K, 3000 kPa, Liquid, x2 = 0.2406	665.4 ± 27
373 K, 4000 kPa, Gas, x2 = 0.8726	64.7 ± 27
373 K, 4000 kPa, Liquid, x2 = 0.3086	675.5 ± 26
373 K, 5000 kPa, Gas, x2 = 0.8713	96.5 ± 17
373 K, 5000 kPa, Liquid, x2 = 0.3859	686.5 ± 26
373 K, 6000 kPa, Gas, x2 = 0.8709	126.4
373 K, 6000 kPa, Liquid, x2 = 0.4129	675 ± 26
373 K, 7000 kPa, Gas, x2 = 0.8706	171 ± 16
373 K, 7000 kPa, Liquid, x2 = 0.4862	659.4 ± 25
373 K, 8000 kPa, Gas, x2 = 0.8716	201.1 ± 16
373 K, 8000 kPa, Liquid, x2 = 0.5222	647.4 ± 25
373 K, 9000 kPa, Gas, x2 = 0.8766	233.2 ± 16
373 K, 9000 kPa, Liquid, x2 = 0.5764	639.9 ± 24
373 K, 10000 kPa, Gas, x2 = 0.856	259.8 ± 16
373 K, 10000 kPa, Liquid, x2 = 0.6256	628.8 ± 24
